Results from patent US8173840B2, “Compounds with high therapeutic index” (Signature R&D Holdings, LLC, priority 2003, dated 2012).
Several values for one entry are separate records, joined by “and”; a condition that tells them apart may be missing. Equal entries are not always repeated.

Tested on: rats
Assay: Hypolipidemic property, blood triglycerides in rats on high sugar diet
Type: in vivo, rat
Conditions: for Triglycerides, Day 7 / Triglycerides, Day zero / Triglycerides, Day 14: individual animals; for Triglycerides, Day 7: after 1 week high sugar diet, before drug; for Triglycerides, Day zero: before diet and drug; for Triglycerides, Day 14: drug day 7-14; for anti-hyperlipidemic properties: compared with Fenofibrate
Protocol: Rats were checked for time zero triglyceride level in blood. Then the rats were set on high sugar diet, such as 30% sucrose in water for 1 week. Then at the end of 1 week, rats were tested for triglycerides, and were put on normal diet. From day 7-14 the rats were administered either test or control drug. Triglycerides were again tested on the 14th day in rat blood.

With CC(C)OC(=O)C(C)(C)Oc1ccc(C(=O)c2ccc(Cl)cc2)cc1 [Fenofibrate, reference compound] the “Triglycerides, Day 7” value (50 mg/kg group) was 150 mg/dL, the “Triglycerides, Day zero” value (50 mg/kg group) was 95 mg/dL and 92 mg/dL and 80 mg/dL and the “Triglycerides, Day 14” value (50 mg/kg) was 101 mg/dL and 76 mg/dL and 73 mg/dL. For the same compound, the “Triglycerides, Day zero” value (100 mg/kg group) was 110 mg/dL and 115 mg/dL and 96 mg/dL, the “Triglycerides, Day 14” value (100 mg/kg) was 62 mg/dL and 69 mg/dL and 93 mg/dL and the “Triglycerides, Day 7” value (200 mg/kg group) was 90 mg/dL and 106 mg/dL and 125 mg/dL. The “Triglycerides, Day zero” value (200 mg/kg group) was 144 mg/dL and 56 mg/dL and 58 mg/dL, the “Triglycerides, Day 14” value (200 mg/kg) was 48 mg/dL and 51 mg/dL and 38 mg/dL and the “% Change From day 0” value (Dose 25 mg/kg) was −15.21%. The “% Change from day 7” value (Dose 25 mg/kg) was −45.86%, the “Absolute Change from day 0” value (Dose 25 mg/kg) was −10.8 and the “Absolute Change from day 7” value (Dose 25 mg/kg) was −51. For the same compound, the “% Change From day 0” value (Dose 50 mg/kg) was −22.95%, the “% Change from day 7” value (Dose 50 mg/kg) was −66.06% and the “Absolute Change from day 0” value (Dose 50 mg/kg) was −13.4. For the same compound, the “Absolute Change from day 7” value (Dose 50 mg/kg) was −87.6, the “% Change From day 0” value (Dose 100 mg/kg) was −61.26% and the “% Change from day 7” value (Dose 100 mg/kg) was −73.51%. The “Absolute Change from day 0” value (Dose 100 mg/kg) was −40.8 and the “Absolute Change from day 7” value (Dose 100 mg/kg) was −71.6.

In the case of C[C@@H](OC(=O)C(C)(C)Oc1ccc(C(=O)c2ccc(Cl)cc2)cc1)[C@H](N)C(=O)O.Cl [Fen-T Ester, L-threonine-fenofibric acid ester, hydrochloride], the “% Change From day 0” value (Dose 25 mg/kg) was −23.21%, the “% Change from day 7” value (Dose 25 mg/kg) was −37.68% and the “Absolute Change from day 0” value (Dose 25 mg/kg) was −18.2. For the same compound, the “Absolute Change from day 7” value (Dose 25 mg/kg) was −36.4, the “% Change From day 0” value (Dose 50 mg/kg) was −35.00% and the “% Change from day 7” value (Dose 50 mg/kg) was −63.71%. For the same compound, the “Absolute Change from day 0” value (Dose 50 mg/kg) was −23.8, the “Absolute Change from day 7” value (Dose 50 mg/kg) was −77.6 and the “% Change From day 0” value (Dose 100 mg/kg) was −68.45%. For the same compound, the “% Change from day 7” value (Dose 100 mg/kg) was −75.04%, the “Absolute Change from day 0” value (Dose 100 mg/kg) was −63.8 and the “Absolute Change from day 7” value (Dose 100 mg/kg) was −88.4. For the same compound, the “anti-hyperlipidemic properties” value (listed as Fenofibric Acid-L-Threonine ester, hydrochloride) was “overall superior anti-hyperlipidemic properties” and the “anti-hyperlipidemic properties” value (listed as L-Threonine ester, hydrochloride) was “dose dependent decrease in triglycerides”.

In the case of CC(C)(Oc1ccc(C(=O)c2ccc(Cl)cc2)cc1)C(=O)OC1CN[C@H](C(=O)O)C1.Cl (stereo partly drawn) [Fen-HP Ester, L-hydroxyproline-fenofibric acid ester, hydrochloride], the “% Change From day 0” value (Dose 25 mg/kg) was −32.92%, the “% Change from day 7” value (Dose 25 mg/kg) was −59.45% and the “Absolute Change from day 0” value (Dose 25 mg/kg) was −16. The “Absolute Change from day 7” value (Dose 25 mg/kg) was −47.8, the “% Change From day 0” value (Dose 50 mg/kg) was −49.31% and the “% Change from day 7” value (Dose 50 mg/kg) was −65.80%. The “Absolute Change from day 0” value (Dose 50 mg/kg) was −35.8, the “Absolute Change from day 7” value (Dose 50 mg/kg) was −70.8 and the “% Change From day 0” value (Dose 100 mg/kg) was −7.52%. For the same compound, the “% Change from day 7” value (Dose 100 mg/kg) was −72.82%, the “Absolute Change from day 0” value (Dose 100 mg/kg) was −3.4 and the “Absolute Change from day 7” value (Dose 100 mg/kg) was −112.

CC(C)(Oc1ccc(C(=O)c2ccc(Cl)cc2)cc1)C(=O)OC[C@H](N)C(=O)O.Cl [L-Serine Ester of Fenofibric Acid, L-serine-fenofibric acid ester, hydrochloride] was tested, and the “Triglycerides, Day 7” value (50 mg/kg group, hydrochloride) was 148 mg/dL and 145 mg/dL and 127 mg/dL, the “Triglycerides, Day zero” value (50 mg/kg group, hydrochloride) was 88 mg/dL and 94 mg/dL and 100 mg/dL and the “Triglycerides, Day 14” value (50 mg/kg, hydrochloride) was 86 mg/dl (2×) and 73 mg/dl. The “Triglycerides, Day 7” value (100 mg/kg group, hydrochloride) was 100 mg/dL and 183 mg/dL, the “Triglycerides, Day zero” value (100 mg/kg group, hydrochloride) was 109 mg/dL and 129 mg/dL and 71 mg/dL and the “Triglycerides, Day 14” value (100 mg/kg, hydrochloride) was 46 mg/dL and 69 mg/dL and 47 mg/dL. The “Triglycerides, Day 7” value (200 mg/kg group, hydrochloride) was 240 mg/dL and 158 mg/dL and 77 mg/dL, the “Triglycerides, Day zero” value (200 mg/kg group, hydrochloride) was 74 mg/dL and 81 mg/dL and 42 mg/dL and the “Triglycerides, Day 14” value (200 mg/kg, hydrochloride) was 83 mg/dL and 61 mg/dL and 46 mg/dL. For the same compound, the “% Change From day 0” value (Dose 25 mg/kg) was −61.64%, the “% Change from day 7” value (Dose 25 mg/kg) was −72.82% and the “Absolute Change from day 0” value (Dose 25 mg/kg) was −54. The “Absolute Change from day 7” value (Dose 25 mg/kg) was −90, the “% Change From day 0” value (Dose 50 mg/kg) was −44.10% and the “% Change from day 7” value (Dose 50 mg/kg) was −67.90%. For the same compound, the “Absolute Change from day 0” value (Dose 50 mg/kg) was −31.4, the “Absolute Change from day 7” value (Dose 50 mg/kg) was −84.2 and the “% Change From day 0” value (Dose 100 mg/kg) was −33.23%. For the same compound, the “% Change from day 7” value (Dose 100 mg/kg) was −63.27%, the “Absolute Change from day 0” value (Dose 100 mg/kg) was −20.8 and the “Absolute Change from day 7” value (Dose 100 mg/kg) was −72.
